Results published in ChEMBL document CHEMBL1909046, “DrugMatrix in vitro pharmacology data”.

Key:
[1] = target: T1, Alpha-2A adrenergic receptor (Homo sapiens, UniProt P08913); format: cell membranes, Sf9, Membrane; conditions: sf9; note: in other assays of this panel Not Active means under 50% inhibition at 10 µM
T1 sequence (P08913 whole entry): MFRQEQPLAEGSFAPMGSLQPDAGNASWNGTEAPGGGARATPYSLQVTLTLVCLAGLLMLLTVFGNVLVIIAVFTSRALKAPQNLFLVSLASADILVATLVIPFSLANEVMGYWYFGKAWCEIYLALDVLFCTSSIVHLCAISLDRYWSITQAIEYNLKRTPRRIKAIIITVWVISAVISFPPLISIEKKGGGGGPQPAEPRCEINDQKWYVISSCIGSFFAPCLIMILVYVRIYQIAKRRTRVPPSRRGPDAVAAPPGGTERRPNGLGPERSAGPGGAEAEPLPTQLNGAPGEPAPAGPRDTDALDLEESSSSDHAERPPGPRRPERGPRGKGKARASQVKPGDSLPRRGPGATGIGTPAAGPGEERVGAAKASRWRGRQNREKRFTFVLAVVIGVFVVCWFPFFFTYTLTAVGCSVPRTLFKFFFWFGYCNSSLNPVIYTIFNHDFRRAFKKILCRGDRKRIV

[2] = target: Mu-type opioid receptor (Homo sapiens, UniProt P35372); test: DRUGMATRIX: Opiate mu (OP3, MOP) radioligand binding (ligand: [3H] Diprenorphine); format: cell membranes, CHO-K1, Membrane; conditions: cho-k1; Not Active = under 50% inhibition at 10 µM
Mu-type opioid receptor, sequence (P35372 whole entry): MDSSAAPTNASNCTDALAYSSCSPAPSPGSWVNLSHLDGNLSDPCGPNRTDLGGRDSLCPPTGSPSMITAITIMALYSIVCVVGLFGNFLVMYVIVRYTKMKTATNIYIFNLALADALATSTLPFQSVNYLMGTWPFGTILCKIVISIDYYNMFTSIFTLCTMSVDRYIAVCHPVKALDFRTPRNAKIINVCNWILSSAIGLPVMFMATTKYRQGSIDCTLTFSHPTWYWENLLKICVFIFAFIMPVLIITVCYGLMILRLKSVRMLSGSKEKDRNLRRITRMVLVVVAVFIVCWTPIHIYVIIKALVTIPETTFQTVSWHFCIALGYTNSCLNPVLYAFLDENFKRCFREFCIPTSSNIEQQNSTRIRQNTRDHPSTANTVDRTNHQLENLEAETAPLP

[3] = target: Cytochrome P450 2C19 (Homo sapiens, UniProt P33261); conditions: bti-tn-5b1-4; note: in other assays of this panel Not Active means under 50% inhibition at 10 µM
Cytochrome P450 2C19, sequence (P33261 whole entry): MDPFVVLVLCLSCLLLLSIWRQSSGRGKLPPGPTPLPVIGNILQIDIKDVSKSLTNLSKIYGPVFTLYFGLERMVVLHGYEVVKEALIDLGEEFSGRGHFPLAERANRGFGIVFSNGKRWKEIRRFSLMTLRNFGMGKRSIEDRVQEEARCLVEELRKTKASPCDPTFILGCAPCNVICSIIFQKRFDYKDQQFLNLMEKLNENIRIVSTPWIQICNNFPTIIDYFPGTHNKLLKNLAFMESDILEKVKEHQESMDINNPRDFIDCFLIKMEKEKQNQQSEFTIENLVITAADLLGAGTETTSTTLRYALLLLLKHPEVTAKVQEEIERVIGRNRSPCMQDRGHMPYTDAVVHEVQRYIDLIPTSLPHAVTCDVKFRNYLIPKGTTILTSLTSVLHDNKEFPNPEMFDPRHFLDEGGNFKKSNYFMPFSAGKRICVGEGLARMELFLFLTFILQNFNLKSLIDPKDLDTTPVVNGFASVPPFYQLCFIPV

[4] = target: Cytochrome P450 3A4 (Homo sapiens, UniProt P08684); conditions: bti-tn-5b1-4; note: in other assays of this panel Not Active means under 50% inhibition at 10 µM
Cytochrome P450 3A4, sequence (P08684 whole entry): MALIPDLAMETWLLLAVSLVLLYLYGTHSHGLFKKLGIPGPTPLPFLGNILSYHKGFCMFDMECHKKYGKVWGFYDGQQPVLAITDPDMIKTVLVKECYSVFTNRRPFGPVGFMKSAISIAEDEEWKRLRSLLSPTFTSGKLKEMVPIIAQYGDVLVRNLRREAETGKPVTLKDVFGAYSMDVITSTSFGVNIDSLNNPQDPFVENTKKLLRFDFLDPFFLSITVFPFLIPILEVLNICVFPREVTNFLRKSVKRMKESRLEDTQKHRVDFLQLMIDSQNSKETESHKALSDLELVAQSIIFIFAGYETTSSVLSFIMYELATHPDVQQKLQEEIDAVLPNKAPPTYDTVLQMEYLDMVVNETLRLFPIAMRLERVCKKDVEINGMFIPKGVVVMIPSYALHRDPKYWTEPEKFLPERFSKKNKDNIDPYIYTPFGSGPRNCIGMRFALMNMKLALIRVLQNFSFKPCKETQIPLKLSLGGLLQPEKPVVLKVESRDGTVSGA

Cc1cnc(NC(=O)C2=C(O)c3ccccc3S(=O)(=O)N2C)s1 [MELOXICAM]
Not Active: IC50 [1] | IC50 [2] | IC50 [3] | Ki [3] | IC50 [4] | Ki [4]

CC(C)(C)NC[C@H](O)COc1cccc2c1CCCC2=O [LEVOBUNOLOL]
Not Active: IC50 [1] | IC50 [2] | IC50 [3] | Ki [3] | IC50 [4] | Ki [4]

Cc1[nH]c(=O)c(C#N)cc1-c1ccncc1 [MILRINONE]
Not Active: IC50 [1] | IC50 [2] | IC50 [4] | Ki [4]

Cc1cn([C@H]2C=C[C@@H](CO)O2)c(=O)[nH]c1=O [STAVUDINE]
Not Active: IC50 [1] | IC50 [2] | IC50 [3] | Ki [3] | IC50 [4] | Ki [4]

OC[C@@H](O)[C@@H](O)[C@H](O)[C@H](O)CO [MANNITOL]
Not Active: IC50 [1] | IC50 [2] | IC50 [3] | Ki [3] | IC50 [4] | Ki [4]

Cc1cc2c(s1)Nc1ccccc1N=C2N1CCN(C)CC1 [OLANZAPINE]
Not Active: IC50 [2] | IC50 [3] | Ki [3] | IC50 [4] | Ki [4]

Cc1ccc(Cl)c(Nc2ccccc2C(=O)O)c1Cl [MECLOFENAMIC ACID]
Not Active: IC50 [1] | IC50 [2] | IC50 [3] | Ki [3] | IC50 [4] | Ki [4]

CNCCCC12CCC(c3ccccc31)c1ccccc12 [MAPROTILINE]
Not Active: IC50 [2]

O=C(c1ccccc1)c1ccc2n1CCC2C(=O)O (centres undefined) [KETOROLAC]
Not Active: IC50 [1] | IC50 [2] | IC50 [3] | Ki [3] | IC50 [4] | Ki [4]

CCN(CC)N=O [N-NITROSODIETHYLAMINE]
Not Active: IC50 [1] | IC50 [3] | Ki [3] | IC50 [4] | Ki [4]

CO[C@@]12[C@H](COC(N)=O)C3=C(C(=O)C(C)=C(N)C3=O)N1C[C@@H]1N[C@@H]12 [MITOMYCIN]
Not Active: IC50 [1] | IC50 [2] | IC50 [3] | Ki [3] | IC50 [4] | Ki [4]

Cc1ccc(S(=O)(=O)NC(=O)NN2CCCCCC2)cc1 [TOLAZAMIDE]
Not Active: IC50 [1] | IC50 [2]

CCC(C)(C)C(=O)O[C@H]1C[C@@H](C)C=C2C=C[C@H](C)[C@H](CC[C@@H]3C[C@@H](O)CC(=O)O3)[C@H]21 [SIMVASTATIN]
Not Active: IC50 [1] | IC50 [2]

CN1C[C@H](CNC(=O)OCc2ccccc2)C[C@@H]2c3cccc4c3c(cn4C)C[C@H]21 [METERGOLINE]
Not Active: IC50 [2] | IC50 [4] | Ki [4]

CC1=C(/C=C/C(C)=C/C=C/C(C)=C/C(=O)O)C(C)(C)CCC1 [TRETINOIN]
Not Active: IC50 [1] | IC50 [2] | IC50 [3] | Ki [3] | IC50 [4] | Ki [4]

CC[C@@]1(O)C(=O)OCc2c1cc1n(c2=O)Cc2cc3c(CN(C)C)c(O)ccc3nc2-1 [TOPOTECAN]
Not Active: IC50 [1] | IC50 [2] | IC50 [3] | Ki [3]

CC(Cl)(Cl)Cl [TRICHLOROETHANE]
Not Active: IC50 [1] | IC50 [3] | Ki [3] | IC50 [4] | Ki [4]

O=C1CC[C@@]2(O)[C@H]3Cc4ccc(O)c5c4[C@@]2(CCN3CC2CC2)[C@H]1O5 [NALTREXONE]
Not Active: IC50 [1] | IC50 [3] | Ki [3] | IC50 [4] | Ki [4]

CN1C(=O)OC(C)(C)C1=O [TRIMETHADIONE]
Not Active: IC50 [1] | IC50 [2] | IC50 [3] | Ki [3] | IC50 [4] | Ki [4]

CC(O)C(=O)O (centres undefined) [LACTIC ACID]
Not Active: IC50 [1] | IC50 [2] | IC50 [3] | Ki [3] | IC50 [4] | Ki [4]

CS(=O)(=O)c1ccc(C2=C(c3ccccc3)C(=O)OC2)cc1 [ROFECOXIB]
Not Active: IC50 [1] | IC50 [2] | IC50 [3] | Ki [3] | IC50 [4] | Ki [4]

C[N+]1(C)[C@@H]2C[C@@H](OC(=O)[C@H](CO)c3ccccc3)C[C@H]1[C@@H]1O[C@@H]12.[Br-] [METHSCOPOLAMINE BROMIDE]
Not Active: IC50 [1] | IC50 [2] | IC50 [3] | Ki [3] | IC50 [4] | Ki [4]

CC(=O)O[C@]1(C(C)=O)CC[C@H]2[C@@H]3C[C@H](C)C4=CC(=O)CC[C@]4(C)[C@H]3CC[C@@]21C [MEDROXYPROGESTERONE ACETATE]
Not Active: IC50 [1] | IC50 [2] | IC50 [3] | Ki [3] | IC50 [4] | Ki [4]

CC1(C)[C@H](C(=O)O)N2C(=O)C[C@H]2S1(=O)=O [SULBACTAM]
Not Active: IC50 [1] | IC50 [2] | IC50 [3] | Ki [3] | IC50 [4] | Ki [4]

O=C(O)c1cc(/N=N/c2ccc(S(=O)(=O)Nc3ccccn3)cc2)ccc1O [SULFASALAZINE]
Not Active: IC50 [1] | IC50 [2] | IC50 [3] | Ki [3] | IC50 [4] | Ki [4]

Cc1ccnc(NS(=O)(=O)c2ccc(N)cc2)n1 [SULFAMERAZINE]
Not Active: IC50 [1] | IC50 [2] | IC50 [3] | Ki [3] | IC50 [4] | Ki [4]

Cc1cccc(C)c1NC(=O)C(C)N (centres undefined) [TOCAINIDE]
Not Active: IC50 [1] | IC50 [2] | IC50 [3] | Ki [3] | IC50 [4] | Ki [4]

CC#C[C@]1(O)CC[C@H]2[C@@H]3CCC4=CC(=O)CCC4=C3[C@@H](c3ccc(N(C)C)cc3)C[C@@]21C [MIFEPRISTONE]
Not Active: IC50 [1] | IC50 [3] | Ki [3]

C[C@]12CCC(=O)C[C@@H]1CC[C@@H]1[C@@H]2CC[C@]2(C)[C@@H](O)CC[C@@H]12 [STANOLONE]
Not Active: IC50 [1] | IC50 [2] | IC50 [3] | Ki [3] | IC50 [4] | Ki [4]

C1CCN2C[C@@H]3C[C@@H](CN4CCCC[C@@H]34)[C@H]2C1 [SPARTEINE]
Not Active: IC50 [1]

CO[C@@H]1[C@@H](OC)[C@H](C)[C@@](O)(CC(=O)O)O[C@H]1[C@H](C)[C@H]1O[C@@]2(CC[C@@](C)([C@H]3CC[C@@](C)([C@@H]4O[C@@H]([C@H]5O[C@](C)(O)[C@H](C)C[C@@H]5C)C[C@@H]4O[C@@H]4C[C@H](OC)[C@@H](OC)[C@H](C)O4)O3)O2)C[C@H](O)[C@H]1C.N [MADURAMICIN]
Not Active: IC50 [1] | IC50 [2] | IC50 [3] | Ki [3] | IC50 [4] | Ki [4]
